Results taken from article PMC3720659, “Integrated Analysis of Drug-Induced Gene Expression Profiles Predicts Novel hERG Inhibitors” (PLoS ONE, 2013).

Biological target: T1, hERG channel (Homo sapiens, UniProt Q12809)
Assay: not given
Settings: not given; call rule not given here

T1 sequence (Q12809 whole entry): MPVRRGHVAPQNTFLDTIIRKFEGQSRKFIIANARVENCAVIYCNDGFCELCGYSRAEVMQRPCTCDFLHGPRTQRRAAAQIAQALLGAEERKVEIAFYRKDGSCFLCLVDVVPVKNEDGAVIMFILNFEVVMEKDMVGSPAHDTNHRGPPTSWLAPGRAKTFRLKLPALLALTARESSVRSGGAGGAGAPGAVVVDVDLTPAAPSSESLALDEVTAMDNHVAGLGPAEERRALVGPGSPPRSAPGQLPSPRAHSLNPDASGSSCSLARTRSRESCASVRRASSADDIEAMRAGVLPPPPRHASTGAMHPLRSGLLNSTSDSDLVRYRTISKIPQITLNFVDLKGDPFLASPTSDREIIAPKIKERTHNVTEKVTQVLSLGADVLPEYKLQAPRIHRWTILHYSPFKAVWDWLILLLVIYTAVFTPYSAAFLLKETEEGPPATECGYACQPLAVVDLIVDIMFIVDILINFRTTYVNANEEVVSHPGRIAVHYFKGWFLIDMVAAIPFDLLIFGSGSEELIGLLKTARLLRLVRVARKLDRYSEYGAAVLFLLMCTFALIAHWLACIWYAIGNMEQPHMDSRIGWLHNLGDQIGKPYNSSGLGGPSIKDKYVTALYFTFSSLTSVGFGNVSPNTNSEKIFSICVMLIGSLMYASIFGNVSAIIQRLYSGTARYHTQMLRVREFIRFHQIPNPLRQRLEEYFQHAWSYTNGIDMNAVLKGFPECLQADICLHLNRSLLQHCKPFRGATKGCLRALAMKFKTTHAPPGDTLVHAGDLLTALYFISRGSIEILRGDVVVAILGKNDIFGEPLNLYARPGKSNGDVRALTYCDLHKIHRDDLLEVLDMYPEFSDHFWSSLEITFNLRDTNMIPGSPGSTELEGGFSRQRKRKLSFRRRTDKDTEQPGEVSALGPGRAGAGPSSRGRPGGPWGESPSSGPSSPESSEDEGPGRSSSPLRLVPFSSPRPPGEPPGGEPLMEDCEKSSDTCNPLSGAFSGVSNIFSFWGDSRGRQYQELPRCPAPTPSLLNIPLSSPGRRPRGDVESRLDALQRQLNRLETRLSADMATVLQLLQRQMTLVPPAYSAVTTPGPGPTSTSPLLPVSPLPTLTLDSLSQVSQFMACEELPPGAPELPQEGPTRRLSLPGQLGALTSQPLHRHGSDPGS

Row | Compound | Behaviour during hERG electrophysiology recording
1 | CCCCC(CC)CN1CN(CC(CC)CCCC)CC(C)(N)C1 (stereo not drawn) [Hexetidine] | appears to disrupt the membrane seal during recording

Biological target: T1, hERG channel
Assay: cell-based
Settings: not given

Row | Compound | IC50
2 | Clc1ccc(C(OCCN2CCCCC2)c2ccccc2)cc1 (stereo not drawn) [Cloperastine] | 360 ± 50 nM
3 | CC(NCCC(c1ccccc1)c1ccccc1)c1ccccc1 (stereo not drawn) [Fendiline, reference compound] | 2600 ± 100 nM

Tested on: hERG current
Assay: not given
Settings: annotation of the drug; Cell Line (HL60, MCF7, PC3) is the cell line of the drug-induced expression profile, not of the hERG assay; ref hERGcentral; cited from earlier work

Row | Compound | Annotation (hERG inhibition class, Active/Inactive by IC50)
4 | rifabutin | Inactive
5 | triamcinolone | Inactive

Same assay, conditions: cited from earlier work

Row | Compound | Annotation (hERG Active / Inactive) | hERG inhibition call in the high-throughput electrophysiology assay
6 | OC(c1cc(C(F)(F)F)nc2c(C(F)(F)F)cccc12)C1CCCCN1 (stereo not drawn) [Mefloquine, reference compound] | Inactive | inactive

Same assay, conditions: hERG inhibition annotation of the drug; the Cell Line (HL60, MCF7, PC3) is the cell line of the expression profile, not of the hERG test; cited from earlier work

Row | Compound | Annotation (hERG Active / Inactive)
7 | Clc1ccc(COC(Cn2ccnc2)c2ccc(Cl)cc2Cl)c(Cl)c1 (stereo not drawn) [Miconazole, reference compound] | Inactive
8 | meglumine | Inactive
9 | minocycline | Inactive
10 | mometasone | Inactive
11 | naloxone | Active
12 | nitrendipine | Inactive
13 | prednisolone | Inactive

Same assay, conditions: inhibitor means 50% or more decrease of hERG current at 10 µM; acute recording; cited from earlier work

Row | Compound | hERG inhibition call in the high-throughput electrophysiology assay
14 | Clc1ccc2c(c1)C(N1CCNCC1)=Nc1ccccc1O2 [Amoxapine, reference compound] | negatives
15 | Clc1ccc(COC(Cn2ccnc2)c2ccc(Cl)cc2Cl)c(Cl)c1 (stereo not drawn) [Miconazole, reference compound] | inactive

Tested on: not given
Assay: not given
Settings: drug on LQT Drug List; the Cell Line (HL60, MCF7, PC3) is the cell line of the expression profile; cited from earlier work

Row | Compound | Annotation (LQT Drug)
16 | OCCN1CCN(CCCN2c3ccccc3Sc3ccc(C(F)(F)F)cc32)CC1 [fluphenazine] | LQT Drug
17 | COC1=C2C[C@@H](C)C[C@H](OC)[C@H](O)[C@@H](C)/C=C(\C)[C@H](OC(N)=O)[C@@H](OC)/C=C\C=C(/C)C(=O)NC(=CC1=O)C2=O [geldanamycin] | LQT Drug
18 | CC1Cc2ccccc2N1NC(=O)c1ccc(Cl)c(S(N)(=O)=O)c1 (stereo not drawn) [indapamide] | LQT Drug
19 | CC(=O)N1CCN(c2ccc(OCC3COC(Cn4ccnc4)(c4ccc(Cl)cc4Cl)O3)cc2)CC1 (stereo not drawn) [ketoconazole] | LQT Drug
20 | CNCCCC12CCC(c3ccccc31)c1ccccc12 [maprotiline] | LQT Drug
21 | Cc1cccc(C)c1OCC(C)N (stereo not drawn) [mexiletine] | LQT Drug
22 | CNCCC=C1c2ccccc2CCc2ccccc21 [nortriptyline] | LQT Drug
23 | CC1COc2c(N3CCN(C)CC3)c(F)cc3c(=O)c(C(=O)O)cn1c23 (stereo not drawn) [ofloxacin] | LQT Drug
24 | CC(Cc1ccccc1)NCCC(c1ccccc1)c1ccccc1 (stereo not drawn) [prenylamine] | LQT Drug

Same assay, conditions: on LQT Drug List; the Cell Line (HL60, MCF7, PC3) names the expression profile; cited from earlier work

Row | Compound | Annotation (LQT Drug)
25 | Clc1ccc2c(c1)C(N1CCNCC1)=Nc1ccccc1O2 [Amoxapine, reference compound] | LQT Drug
26 | COc1cc2nc(N(C)CCCNC(=O)C3CCCO3)nc(N)c2cc1OC (stereo not drawn) [alfuzosin] | LQT Drug
27 | NC12CC3CC(CC(C3)C1)C2 [amantadine] | LQT Drug
28 | CN(C)CCC=C1c2ccccc2CCc2ccccc21 [amitriptyline] | LQT Drug
29 | CCN(CC)CCCC(C)Nc1ccnc2cc(Cl)ccc12 (stereo not drawn) [chloroquine] | LQT Drug
30 | CNCCCN1c2ccccc2CCc2ccccc21 [desipramine] | LQT Drug
31 | CC(CCc1ccc(O)cc1)NCCc1ccc(O)c(O)c1 (stereo not drawn) [dobutamine] | LQT Drug

Same assay, conditions: previous literature; not in the LQT drug lists used; cited from earlier work

Row | Compound | Association with drug-induced LQT
32 | CC(NCCC(c1ccccc1)c1ccccc1)c1ccccc1 (stereo not drawn) [Fendiline, reference compound] | drug-induced LQT

Tested on: recombinantly expressed hERG channels
Assay: not given
Settings: cited from earlier work

Row | Compound | Inhibition of hERG channels recombinantly expressed in cell lines
33 | OC(c1cc(C(F)(F)F)nc2c(C(F)(F)F)cccc12)C1CCCCN1 (stereo not drawn) [Mefloquine, reference compound] | inhibit
34 | Clc1ccc(COC(Cn2ccnc2)c2ccc(Cl)cc2Cl)c(Cl)c1 (stereo not drawn) [Miconazole, reference compound] | inhibit

Same assay, conditions: read-out: IC50 for inhibition of the current of recombinantly expressed hERG channels; cited from earlier work

Row | Compound | IC50
35 | CCN(CC)CCOc1ccc(C(=C(Cl)c2ccccc2)c2ccccc2)cc1 [Clomiphene] | 180 nM
